For orientation: inhibition in vivo means the change of the read-out against control, counted positive when it falls. Low values mean a response near the control, high ones a response far below the control. One may read the LD50 as the dose at which mortality reaches 50%.

Where only a bound is given, the exact number is not on record here.

Data set [1] relates to release of histamine induced by passive peritoneal anaphylaxis (PPA) reaction. Put plainly: Passive Peritoneal Anaphylaxis (PPA) test: inhibition of histamine release. Type of data set: in vivo, Sprague-Dawley male rats. As to conditions: ip, 5 min; rat PPA; 1 mg/kg intraperitoneally 30 seconds before egg albumin. As for the experimental part: (§1) 1 mg of egg albumin dissolved in 0.2 ml of saline was intramuscularly administered to each of Sprague-Dawley male rats weighing 300 to 350 g (Charles River Japan Inc.), and then 1 ml of a suspension of sterilized Bordetella pertussis (2×10^10 cells) in saline was administered intraperitoneally to the rats. After 14 days, blood was drawn from the rats to obtain an antiserum.
(§2) The test was conducted according to the method of Orange et al [Orange, R. P., Stechschulte, D. J., Austen, K. F., J. Immunol., 105, pp1087-1095 (1970)]. Sprague-Dawley male rats weighing 250 to 400 g (5 rats per group) were passively sensitized by administering 5 ml of 5-fold dilution antiserum (prepared by diluting the above antiserum with saline). 2 hours later, 5 ml of an egg albumin solution prepared by dissolving 2 mg of egg albumin in phosphate buffered saline containing 0.9 mM of calcium chloride was administered intraperitoneally to the rats. After 5 minutes, the rats were sacrificed by decapitation, and peritoneal fluid was pooled and centrifuged at 300×G at 4° C. for 10 minutes. Then, amounts of SRS-A and histamine in the supernatant were determined.
The quantitative determination of histamine was carried out according to the method of Shore et al [Shore, P. A., Bunkhalter, A. H., Cohn, V. H., J. Pharmacol. Exp. Ther., 127, pp182-186 (1959)], and the total released amount of histamine per rat (μg/rat) was calculated.
(§3) In this test, the test compound of this invention was administered as follows. 2 mg of a test compound was dissolved in 10 ml of phosphate buffered saline containing 0.9 mM of calcium chloride, an equimolar amount of sodium hydroxide to test compound, 2% of dimethyl sulfoxide and 2% of ethanol, and the solution was administered intraperitoneally to the rats at a dose of 1 mg/kg 30 seconds before the injection of egg albumin for inducing PPA. For a control group, the same solution without test compound and sodium hydroxide was administered.
(§4) The inhibitory activity on release of histamine and SRS-A by the PPA reaction in the treated group was calculated by the following formula: [formula] wherein: a represents a mean value of released amount in the control group.
(§5) b represents a mean value of released amount in the treated group.
(§6) c represents a mean value of spontaneously released amount.

Data set [2] relates to release of SRS-A induced by passive peritoneal anaphylaxis (PPA) reaction. Put plainly: Passive Peritoneal Anaphylaxis (PPA) test: inhibition of SRS-A release. Type of data set: in vivo, Sprague-Dawley male rats. Conditions: ip, 5 min; rat PPA; 1 mg/kg intraperitoneally 30 seconds before egg albumin. How it is done:
as §1, §2
The quantitative determination of SRS-A was carried out according to the method of Stechschulte et al [Stechschulte, D. J., Auste, K. F., Bloch, K. J., J. Exp. Med., 125, pp127-147 (1967)] using a guinea pig ileum specimen in the presence of mepyramine and atropine. The amount of SRS-A was expressed in terms of unit, i.e., one unit of SRS-A activity was defined as the concentration required to produce a contraction of guinea pig ileum equal in amplitude to that produced by 5 ng of histamine, and the total released amount of SRS-A per rat (unit/rat) was calculated.
as §3, §4, §5, §6

Data set [3] has as its system passive cutaneous anaphylaxis (PCA) reaction. The experiment in a line: Passive cutaneous anaphylaxis (PCA) test. Type of data set: in vivo, Sprague-Dowley male rats. Conditions: 0.5 h; rat PCA; 20 mg/kg in 0.5% CMC, oral, 30 minutes before antigen challenge. As for the experimental part:
as §1
In this test, the antiserum described in Test Example 1 was used after it was diluted with saline so as to provide a blue spot having a diameter of about 10 mm in the following control group.
Sprague-Dowley male rats weighing about 180 g (5 rats per group) were sensitized by injecting 0.05 ml of the diluted antiserum into the shaved dorsal skin. 48 hours later, the animals were challenged with 1 ml of saline containing 5 mg of egg albumin and 5 mg of Evans blue dye administered via a tail vein. 30 minutes later, the rats were sacrificed by decapitation. The dorsal skin was removed, and the long and short axis of the each wheal was measured.
In this test, the test compound was administered as follows. 20 mg of a test compound was suspended in a 0.5% CMC aqueous solution, and the suspension was administered to each of the rats in an amount of 20 mg/kg 30 minutes before the antigen challenge. For a control group, only a 0.5% CMC solution was administered.
The inhibitory activity on the PCA reaction in the treated group was calculated by the following formula: [formula] wherein: a represents a mean value of blue spot area in the control group.
b represents a mean value of blue spot area in the treated group.

The nature of data set [4]: Acute oral toxicity (LD50) in rats. Conditions: rat, in vivo, oral administration.

Regarding `CC(C)(C)c1ccc(-c2nn3c(=O)c4[nH]nnc4nc3s2)cc1` [Example 1, 6-(4-tert-Butylphenyl)-[1,3,4]thiadiazolo[3,2-a][1,2,3]triazolo[4,5-d]pyrimidin-9(1H)-one], the inhibition in vivo at 1 mg/kg turned out to be 83% in data set [1] and 64% in data set [2]. Also, the inhibition in vivo at 20 mg/kg in data set [3] amounted to 46%. In data set [4], this molecule came in with an LD50 greater than 2000 mg/kg.
Regarding `CC(C)c1ccc(-c2nn3c(=O)c4[nH]nnc4nc3s2)cc1` [Example 2], the results for the inhibition in vivo at 1 mg/kg in data set [1] and in data set [2] were 85% and 52%, respectively.
The like results for `COc1ccc(-c2nn3c(=O)c4[nH]nnc4nc3s2)cc1` [Example 3] were, in that order, 93% and 42%.
As to `CC(C)(C)c1ccc(-c2cn3c(=O)c4[nH]nnc4nc3s2)cc1` [Example 6], the inhibition in vivo at 20 mg/kg in data set [3] amounted to 36%.
For the molecule `O=c1c2[nH]nnc2nc2sc(-c3ccc(C4CCCCC4)cc3)cn12` [Example 7], in data set [3], the inhibition in vivo at 20 mg/kg stood at 40%.
Take `O=c1c2[nH]nnc2nc2sc(-c3ccccc3)cn12` [Example 8]: the inhibition in vivo at 1 mg/kg in data set [1] stood at 83%; in data set [2], 37%.
As to `COc1cccc(-c2nn3c(=O)c4[nH]nnc4nc3s2)c1OC` [Example 11], the inhibition in vivo at 1 mg/kg is 89% in data set [1] and 66% in data set [2]. Besides, 20 mg/kg produced 32% inhibition in vivo in data set [3].
The like results for `O=c1c2[nH]nnc2nc2sc(-c3ccc4c(c3)OCO4)nn12` [Example 12] were, in that order, 87%, 52% and 36%.
As for `O=c1c2[nH]nnc2nc2sc(-c3cccc(F)c3)nn12` [Example 13], the inhibition in vivo at 20 mg/kg in data set [3] was 34%.
As for `Cc1ccc(-c2nn3c(=O)c4[nH]nnc4nc3s2)o1` [Example 18], the LD50 in data set [4] is greater than 2000 mg/kg.
As to `CC(C)(C)c1ccc(-c2nn3c(=O)c4[nH]nnc4nc3s2)o1` [Example 20], the LD50 in data set [4] is greater than 2000 mg/kg.
In the case of `O=c1c2[nH]nnc2nc2sc(-c3ccc(Cl)o3)nn12` [Example 21], the inhibition in vivo at 20 mg/kg in data set [3] was 35%. This molecule also showed a median lethal dose (LD50) in data set [4] greater than 2000 mg/kg.
Molecule `O=c1c2[nH]nnc2nc2sc(-c3ccsc3)nn12` [Example 24] had an inhibition in vivo at 20 mg/kg in data set [3] of 45%.
As for `CCc1ccc(-c2nn3c(=O)c4[nH]nnc4nc3s2)s1` [Example 27], the inhibition in vivo at 1 mg/kg is 81% in data set [1] and 63% in data set [2].
On to `CC(C)(C)c1ccc(-c2nn3c(=O)c4[nH]nnc4nc3s2)s1` [Example 28], for which, in data set [3], the inhibition in vivo at 20 mg/kg amounted to 34%.
On to `CC(C)(C)c1cc(-c2nn3c(=O)c4[nH]nnc4nc3s2)cs1` [Example 29], for which the inhibition in vivo at 20 mg/kg in data set [3] is 39%.
`CCc1sc(-c2nn3c(=O)c4[nH]nnc4nc3s2)cc1C` [Example 31]: testing at 20 mg/kg in data set [3] gave an inhibition in vivo of 32%.
Turning to `O=c1c2[nH]nnc2nc2sc(-c3ccc(Cl)s3)nn12` [Example 32], the figures for the inhibition in vivo at 1 mg/kg in data set [1] and in data set [2] were 87% and 63%, respectively. The molecule further registered an inhibition in vivo at 20 mg/kg in data set [3] of 35%.
As for `O=c1c2[nH]nnc2nc2sc(-c3cc4c(s3)CCC4)nn12` [Example 33], the inhibition in vivo at 1 mg/kg in data set [1] worked out at 82%; in data set [2], 70%. Moreover, the inhibition in vivo at 20 mg/kg in data set [3] came to 47%.
Take `O=c1c2[nH]nnc2nc2sc(-c3cc4c(s3)CCCC4)nn12` [Example 35]: the inhibition in vivo at 1 mg/kg in data set [1] came out at 88%; in data set [2], 45%. The inhibition in vivo at 20 mg/kg in data set [3] was 45%.
`CC1CCc2sc(-c3nn4c(=O)c5[nH]nnc5nc4s3)cc2C1` (stereo not shown) [Example 36]: the inhibition in vivo at 1 mg/kg in data set [1] stood at 83%; in data set [2] it was 41%. In data set [3], this molecule had an inhibition in vivo at 20 mg/kg of 40%.
Turning to `O=c1c2[nH]nnc2nc2sc(C3COc4ccccc4C3)nn12` (stereo not shown) [Example 39], in data set [3], the inhibition in vivo at 20 mg/kg came to 38%.
For the molecule `O=c1c2[nH]nnc2nc2sc(C3COc4ccccc4O3)nn12` (stereo not shown) [Example 41], the inhibition in vivo at 1 mg/kg was 91% in data set [1] and 62% in data set [2].
Consider `CC(C)(C)c1ccc(Cc2nn3c(=O)c4[nH]nnc4nc3s2)cc1` [Example 43], for which the inhibition in vivo at 1 mg/kg in data set [1] amounted to 75%; in data set [2], 59%.
Regarding `COc1ccc(Cc2nn3c(=O)c4[nH]nnc4nc3s2)cc1` [Example 44], the inhibition in vivo at 1 mg/kg in data set [1] stood at 81%; in data set [2], 70%.
Molecule `O=c1c2[nH]nnc2nc2sc(Cc3ccc(F)cc3)nn12` [Example 45] registered an inhibition in vivo at 20 mg/kg in data set [3] of 57%.
In turn, `O=c1c2[nH]nnc2nc2sc(-c3ccccc3)nn12` [Example 47] registered an inhibition in vivo at 20 mg/kg in data set [3] of 38%. The LD50 in data set [4] is greater than 2000 mg/kg.
Regarding `Cc1ccccc1CCc1nn2c(=O)c3[nH]nnc3nc2s1` [Example 48], the LD50 in data set [4] is greater than 2000 mg/kg.
In data set [4], `Cc1cccc(CCc2nn3c(=O)c4[nH]nnc4nc3s2)c1` [Example 49] returned an LD50 greater than 2000 mg/kg.
In the case of `Cc1ccc(CCc2nn3c(=O)c4[nH]nnc4nc3s2)cc1` [Example 50], the LD50 in data set [4] was greater than 2000 mg/kg.
Same read-out and setting: next, `O=c1c2[nH]nnc2nc2sc(CCc3ccc(F)cc3)nn12` [Example 53]: greater than 2000 mg/kg; `O=c1c2[nH]nnc2nc2sc(CCc3cccc(Cl)c3)nn12` [Example 54]: greater than 2000 mg/kg.
For `O=c1c2[nH]nnc2nc2sc(CCc3ccc(Cl)cc3)nn12` [Example 55], the LD50 in data set [4] was greater than 2000 mg/kg.
With `O=c1c2[nH]nnc2nc2sc(CC(c3ccccc3)c3ccccc3)nn12` [Example 57], the values for the inhibition in vivo at 1 mg/kg in data set [1] and in data set [2] were 86% and 61%, respectively.
In the case of `O=c1c2[nH]nnc2nc2sc(C=Cc3ccccc3)nn12` [Example 62], the results for the inhibition in vivo at 1 mg/kg in data set [1] and in data set [2] were 94% and 55%, respectively.
`O=c1c2[nH]nnc2nc2sc(COc3ccccc3)nn12` [Example 64] gave an inhibition in vivo at 20 mg/kg in data set [3] of 33%.
With `O=c1c2[nH]nnc2nc2sc(COc3ccc(F)cc3)nn12` [Example 66], the inhibition in vivo at 1 mg/kg in data set [1] was determined as 89%; in data set [2], 47%.
On to `CC(C)(C)c1ccc(OCCc2nn3c(=O)c4[nH]nnc4nc3s2)cc1` [Example 69], for which 20 mg/kg produced 34% inhibition in vivo in data set [3].
In data set [3], `COc1ccc(-c2cn3c(=O)c4[nH]nnc4nc3s2)cc1Cl` [Example 73] gave an inhibition in vivo at 20 mg/kg of 48%.
As for `O=c1c2[nH]nnc2nc2sc(-c3cccs3)cn12` [Example 75], the inhibition in vivo at 20 mg/kg in data set [3] amounted to 32%.
For `Cc1ccc(-c2nn3c(=O)c4[nH]nnc4nc3s2)cc1` [Example 80, 6-(4-Methylphenyl)-[1,3,4]thiadiazolo[3,2-a][1,2,3]triazolo[4,5-d]pyrimidin-9(1H)-one monohydrate], the inhibition in vivo at 1 mg/kg in data set [1] was 91%; in data set [2], 42%. In data set [3], the inhibition in vivo at 20 mg/kg turned out to be 31%.
On to `CC(C)(C)c1cccc(-c2nn3c(=O)c4[nH]nnc4nc3s2)c1` [Example 82], for which the values for the inhibition in vivo at 1 mg/kg in data set [1] and in data set [2] were 82% and 52%, respectively.
On to `O=c1c2[nH]nnc2nc2sc(-c3ccc4c(c3)CCCC4)nn12` [Example 83], for which the inhibition in vivo at 20 mg/kg in data set [3] is 44%.

Source of the values: US4652646A, “Thiazolo[3,2-a][1,2,3]triazolo[4,5-d]pyrimidine and [1,3,4]thiadiazolo[3,2-a][1,2,3]triazolo[4,5-d]pyrimidine derivatives” (Daiichi Seiyaku Co., Ltd., priority 1984, dated 1987).
